Measurements from PubChem BioAssay AID1845210 (Molecular Pharmacology Branch, DTP, NCI, 2023).

Tested on: NCI-H226 complex tumor spheroids, viability
Assay: Anticancer human tumor NCI-H226 cell line growth inhibition;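 further: spheroids exposed to compound for 7 days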;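 on viability, T/C: 100% = DMSO vehicle control viability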
Conditions: for IC50: curve of first compound; for viability, T/C: stronger effect = lower value
Source text: Multicellular complex tumor spheroid response to DNA repair inhibitors in combination with DNA-damaging drugs
This study explores the anticancer activities of DNA-damaging drugs and inhibitors of DNA damage repair, both as single agents and in combinations. Complex tumor spheroids comprised of malignant cells, endothelial cells and mesenchymal stem cells served as an in vitro model for human solid tumors. This model system incorporates physiologically relevant features and patient-derived or established malignant cell lines with clinically relevant genetic alterations from many tumor types. Twenty-six patient-derived or established malignant cell lines were evaluated representing sarcoma, melanoma, small cell lung cancer (SCLC), non-small cell lung cancer (NSCLC), as well as bladder, ovarian and pancreatic cancers. The concentration ranges selected for each drug and investigational agent were based upon clinically achievable concentrations if the clinical Cmax of the agent was known.
Compounds. The drugs and compounds olaparib (NSC753686), talazoparib (NSC767125), berzosertib (NSC777718), elimusertib (NSC800525), nedisertib (NSC802822), VX-984 (NSC792969), AZD-1390 (NSC803789), temozolomide (NSC362856), topotecan (NSC609699), trabectedin (NSC813783), staurosporine (NSC755774), and gemcitabine (NSC613327) were obtained from the National Cancer Institute (NCI) Developmental Therapeutics Program Chemical Repository. The FDA-approved anticancer drug set is available from the Developmental Therapeutics Program at https://dtp.cancer.gov/organization/dscb/obtaining/available_plates.htm. […] The stock solutions were prepared in dimethyl sulfoxide (DMSO, Sigma-Aldrich, St. Louis, MO, cat. D2650) at 400-fold the tested concentration and stored at -70 degrees C. Prior to their use, the stock solutions were diluted in fresh medium and the final DMSO concentration in the assay was 0.25% (v/v). All drugs and investigational agents were tested over a range starting from a high concentration at or near the clinical Cmax and decreasing in half-log increments. If the clinical Cmax for an agent had not been determined, the highest concentration tested was 10 microM.
Cell Lines. The patient-derived cancer cell (PDC) lines: 156681-154-R-J1-PDC, 283228-195-R-J1-PDC, 287954-098-R-J1-PDC, 292921-168-R-J2-PDC, 349418-098-R-PDC, 425362-245-T-J1-PDC, 556581-035-R-J1-PDC, and BL0293-F563-PDC were received from the NCI Patient-Derived Models Repository (PDMR, https://pdmr.cancer.gov). The established cell lines HS-SY-2 (RRID:CVCL_8719), MPNST, and SYO-1 (RRID:CVCL_7146) were obtained from the Sloan Kettering Institute. The alveolar soft parts sarcoma cell line ASPS-1 (RRID:CVCL_S738) was established at the NCI and grown from internal seed stocks. The following established cell lines were purchased from the American Type Culture Collection (ATCC, Manassas, VA): G-401 (ATCC, cat. CRL-1441, RRID:CVCL_0270), SW982 (ATCC, cat. HTB-93, RRID:CVCL_1734), VA-ES-BJ (ATCC, cat. CRL-2138, RRID:CVCL_1785), NCI-H719 (ATCC, cat. CRL-5837, RRID:CVCL_1582), NCI-H196 (ATCC, cat. CRL-5823, RRID:CVCL_1509), NCI-H841 (ATCC, cat. CRL-5845, RRID:CVCL_1595), NCI-H1618 (ATCC, cat. CRL-5879, RRID:CVCL_1480), NCI-H1876 (ATCC, cat. CRL-5902, RRID:CVCL_1503), DMS 114 (ATCC, cat. CRL-2066; RRID:CVCL_1174), NCI-H211 (ATCC, cat. CRL-5824; RRID:CVCL_1529), and SW 1271 (ATCC, cat. CRL-2177, RRID:CVCL_1716). The small cell lung cancer cell line COR-L88 was purchased from Sigma-Aldrich (cat. 92031917-1VL, RRID:CVCL_1141). The non-small cell lung cancer cell lines NCI-H226 (RRID:CVCL_1544) and NCI-H322M (RRID:CVCL_1557) were established at the NCI and grown from internal seed stocks. Pooled donor human umbilical vein endothelial cells (HUVEC, Lonza, cat. CC-2519) and human mesenchymal stem cells (hMSC, Lonza, cat. PT-2501) were purchased from Lonza (Walkersville, MD).
Cell Culture. All cells were maintained in an incubator at 37 degrees C and 5% CO2 with 95% humidity. […]

Cc1cc(C)c(CNC(=O)c2cc(-c3ccc(CN4CCOCC4)cc3)cc3c2cnn3C2CCCC2)c(=O)[nH]1 + Cn1nnc2c(C(N)=O)ncn2c1=O was tested, and the IC50 (second compound 1 µM) was > 10 µM, the IC50 (second compound 3.16 µM) was > 10 µM and the IC50 (second compound 10 µM) was > 10 µM. For the same molecule, the IC50 (second compound 31.6 µM) was > 10 µM, the IC50 (second compound 100 µM) was > 10 µM and the viability, T/C (second compound 1 µM, first compound 0.0316 µM) was 113%. It also gave a viability, T/C (second compound 1 µM, first compound 0.1 µM) of 125%, a viability, T/C (second compound 1 µM, first compound 0.316 µM) of 106% and a viability, T/C (second compound 1 µM, first compound 1 µM) of 115%. The viability, T/C (second compound 1 µM, first compound 3.16 µM) was 131%, the viability, T/C (second compound 1 µM, first compound 10 µM) was 102% and the viability, T/C (second compound 3.16 µM, first compound 0.0316 µM) was 125%. For the same molecule, the viability, T/C (second compound 3.16 µM, first compound 0.1 µM) was 135%, the viability, T/C (second compound 3.16 µM, first compound 0.316 µM) was 113% and the viability, T/C (second compound 3.16 µM, first compound 1 µM) was 113%. For the same molecule, the viability, T/C (second compound 3.16 µM, first compound 3.16 µM) was 97.4%, the viability, T/C (second compound 3.16 µM, first compound 10 µM) was 119% and the viability, T/C (second compound 10 µM, first compound 0.0316 µM) was 128%. For the same molecule, the viability, T/C (second compound 10 µM, first compound 0.1 µM) was 136%, the viability, T/C (second compound 10 µM, first compound 0.316 µM) was 122% and the viability, T/C (second compound 10 µM, first compound 1 µM) was 109%. The viability, T/C (second compound 10 µM, first compound 3.16 µM) was 111%, the viability, T/C (second compound 10 µM, first compound 10 µM) was 125% and the viability, T/C (second compound 31.6 µM, first compound 0.0316 µM) was 123%. For the same molecule, the viability, T/C (second compound 31.6 µM, first compound 0.1 µM) was 108%, the viability, T/C (second compound 31.6 µM, first compound 0.316 µM) was 116% and the viability, T/C (second compound 31.6 µM, first compound 1 µM) was 109%. For the same molecule, the viability, T/C (second compound 31.6 µM, first compound 3.16 µM) was 103%, the viability, T/C (second compound 31.6 µM, first compound 10 µM) was 144% and the viability, T/C (second compound 100 µM, first compound 0.0316 µM) was 108%. It also gave a viability, T/C (second compound 100 µM, first compound 0.1 µM) of 114%, a viability, T/C (second compound 100 µM, first compound 0.316 µM) of 122% and a viability, T/C (second compound 100 µM, first compound 1 µM) of 130%. It also gave a viability, T/C (second compound 100 µM, first compound 3.16 µM) of 110% and a viability, T/C (second compound 100 µM, first compound 10 µM) of 132%.

In the case of O=C(c1cc(Cc2n[nH]c(=O)c3ccccc23)ccc1F)N1CCN(C(=O)C2CC2)CC1 + Cn1nnc2c(C(N)=O)ncn2c1=O, the IC50 (second compound 1 µM) is reported as > 30 µM, the IC50 (second compound 3.16 µM) is reported as > 30 µM and the IC50 (second compound 10 µM) is reported as > 30 µM. The IC50 (second compound 31.6 µM) was > 30 µM, the IC50 (second compound 100 µM) was > 30 µM and the viability, T/C (second compound 1 µM, first compound 0.0949 µM) was 99.9%. For the same molecule, the viability, T/C (second compound 1 µM, first compound 0.3 µM) was 99.8%, the viability, T/C (second compound 1 µM, first compound 0.949 µM) was 107% and the viability, T/C (second compound 1 µM, first compound 3 µM) was 104%. It also gave a viability, T/C (second compound 1 µM, first compound 9.49 µM) of 99.2%, a viability, T/C (second compound 1 µM, first compound 30 µM) of 86.4% and a viability, T/C (second compound 3.16 µM, first compound 0.0949 µM) of 105%. For the same molecule, the viability, T/C (second compound 3.16 µM, first compound 0.3 µM) was 96.7%, the viability, T/C (second compound 3.16 µM, first compound 0.949 µM) was 105% and the viability, T/C (second compound 3.16 µM, first compound 3 µM) was 95.4%. The viability, T/C (second compound 3.16 µM, first compound 9.49 µM) was 81.9%, the viability, T/C (second compound 3.16 µM, first compound 30 µM) was 80.3% and the viability, T/C (second compound 10 µM, first compound 0.0949 µM) was 112%. For the same molecule, the viability, T/C (second compound 10 µM, first compound 0.3 µM) was 104%, the viability, T/C (second compound 10 µM, first compound 0.949 µM) was 95.1% and the viability, T/C (second compound 10 µM, first compound 3 µM) was 101%. For the same molecule, the viability, T/C (second compound 10 µM, first compound 9.49 µM) was 84.6%, the viability, T/C (second compound 10 µM, first compound 30 µM) was 77.3% and the viability, T/C (second compound 31.6 µM, first compound 0.0949 µM) was 98.3%. It also gave a viability, T/C (second compound 31.6 µM, first compound 0.3 µM) of 101%, a viability, T/C (second compound 31.6 µM, first compound 0.949 µM) of 110% and a viability, T/C (second compound 31.6 µM, first compound 3 µM) of 95.1%. It also gave a viability, T/C (second compound 31.6 µM, first compound 9.49 µM) of 84.6%, a viability, T/C (second compound 31.6 µM, first compound 30 µM) of 82% and a viability, T/C (second compound 100 µM, first compound 0.0949 µM) of 114%. It also gave a viability, T/C (second compound 100 µM, first compound 0.3 µM) of 113%, a viability, T/C (second compound 100 µM, first compound 0.949 µM) of 125% and a viability, T/C (second compound 100 µM, first compound 3 µM) of 99.3%. It also gave a viability, T/C (second compound 100 µM, first compound 9.49 µM) of 97.8% and a viability, T/C (second compound 100 µM, first compound 30 µM) of 80.5%.
